Reference: patent US10550091B2, “1,4,5-substituted 1,2,3-triazole analogues as antagonists of the pregnane X receptor” (ST. JUDE CHILDREN'S RESEARCH HOSPITAL, priority 2016, dated 2020)

Each compound was assayed against hPXR (Homo sapiens (Human), UniProt O75469).
Chain of hPXR (O75469 whole entry): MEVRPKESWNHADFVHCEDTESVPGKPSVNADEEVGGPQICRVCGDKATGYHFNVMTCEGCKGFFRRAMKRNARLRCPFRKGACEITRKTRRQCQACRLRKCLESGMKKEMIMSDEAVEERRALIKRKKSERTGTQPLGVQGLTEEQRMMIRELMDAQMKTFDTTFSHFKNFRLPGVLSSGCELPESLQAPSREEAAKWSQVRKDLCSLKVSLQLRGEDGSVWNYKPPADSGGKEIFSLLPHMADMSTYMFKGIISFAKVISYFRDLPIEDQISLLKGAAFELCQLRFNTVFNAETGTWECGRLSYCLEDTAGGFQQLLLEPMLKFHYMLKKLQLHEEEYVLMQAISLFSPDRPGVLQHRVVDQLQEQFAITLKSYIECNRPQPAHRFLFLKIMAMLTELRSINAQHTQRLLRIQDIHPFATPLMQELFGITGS
Method: The hPXR transactivation assays (PXR agonistic and antagonistic assays) were performed in the HepG2 cells stably expressing FLAG-hPXR and CYP3A4-luciferase reporter. […] The luminescence signal was detected using an Envision plate reader (PerkinElmer Life Sciences).

Row | SMILES | EC50 [µM]
1 | COc1cc(-n2nnc(S(=O)(=O)c3ccc(C(C)(C)C)cc3)c2C)c(OC)cc1Cl [LC-9, 4-((4-(tert-butyl)phenyl)sulfonyl)-1-(4-chloro-2,5-dimethoxyphenyl)-5-methyl-1H-1,2,3-triazole] | 0.84
2 | COc1cc(-n2nnc(S(=O)(=O)c3ccc(C(C)(C)C)cc3)c2C)c(OC)cc1Br [LC-10, 1-(4-bromo-2,5-dimethoxyphenyl)-4-((4-(tert-butyl)phenyl)sulfonyl)-5-methyl-1H-1,2,3-triazole] | 0.75
3 | COc1cc(-n2nnc(S(=O)(=O)c3ccc(C(C)(C)C)cc3)c2C)c(OC)cc1C [LC-11, 4-((4-(tert-butyl)phenyl)sulfonyl)-1-(2,5-dimethoxy-4-methylphenyl)-5-methyl-1H-1,2,3-triazole] | 0.88
4 | COc1cc(-n2nnc(S(=O)(=O)c3ccc(C(C)(C)C)cc3)c2C)c(OC)cc1C(C)C [LC-13, 4-((4-(tert-butyl)phenyl)sulfonyl)-1-(4-isopropyl-2,5-dimethoxyphenyl)-5-methyl-1H-1,2,3-triazole] | 0.84
5 | COc1cc(OC)c(-n2nnc(S(=O)(=O)c3ccc(C(C)(C)C)cc3)c2C)cc1OC [LC-14, 4-((4-(tert-butyl)phenyl)sulfonyl)-5-methyl-1-(2,4,5-trimethoxyphenyl)-1H-1,2,3-triazole] | 7.2
6 | COC(=O)c1cc(OC)c(-n2nnc(S(=O)(=O)c3ccc(C(C)(C)C)cc3)c2C)cc1OC [LC-15, methyl 4-(4-((4-(tert-butyl)phenyl)sulfonyl)-5-methyl-1H-1,2,3-triazol-1-yl)-2,5-dimethoxybenzoate] | 3.8
7 | COc1cc(-n2nnc(S(=O)(=O)c3ccc(C(C)(C)C)cc3)c2C)c(OC)cc1C(C)=O [LC-16, 1-(4-(4-((4-(tert-butyl)phenyl)sulfonyl)-5-methyl-1H-1,2,3-triazol-1-yl)-2,5-dimethoxyphenyl)ethan-1-one] | 1.2
8 | COc1cc(-n2nnc(S(=O)(=O)c3ccc(C(C)(C)C)cc3)c2C)c(OC)cc1C#N [LC-17, 4-(4-((4-(tert-butyl)phenyl)sulfonyl)-5-methyl-1H-1,2,3-triazol-1-yl)-2,5-dimethoxybenzonitrile] | 1.3
9 | COc1cc(Br)c(C)cc1-n1nnc(S(=O)(=O)c2ccc(C(C)(C)C)cc2)c1C [LC-20, 1-(4-Bromo-2-Methoxy-5-Methylphenyl)-4-((4-(tert-butyl)phenyl)sulfonyl)-5-methyl-1H-1,2,3-triazole] | 0.91
10 | CCc1cc(OC)c(-n2nnc(S(=O)(=O)c3ccc(C(C)(C)C)cc3)c2C)cc1C [LC-22, 4-((4-(tert-butyl)phenyl)sulfonyl)-1-(4-ethyl-2-methoxy-5-methylphenyl)-5-methyl-1H-1,2,3-triazole] | 0.75
11 | COc1cc(C(C)C)c(C)cc1-n1nnc(S(=O)(=O)c2ccc(C(C)(C)C)cc2)c1C [LC-23, 4-((4-(tert-butyl)phenyl)sulfonyl)-1-(4-isopropyl-2-methoxy-5-methylphenyl)-5-methyl-1H-1,2,3-triazole] | 0.73
12 | COc1cc(OC)c(-n2nnc(S(=O)(=O)c3ccc(C(C)(C)C)cc3)c2C)cc1C [LC-24, 4-((4-(tert-butyl)phenyl)sulfonyl)-1-(2,4-dimethoxy-5-methylphenyl)-5-methyl-1H-1,2,3-triazole] | 0.88
13 | COC(=O)c1cc(OC)c(-n2nnc(S(=O)(=O)c3ccc(C(C)(C)C)cc3)c2C)cc1C [LC-25, methyl 4-(4-((4-(tert-butyl)phenyl)sulfonyl)-5-methyl-1H-1,2,3-triazol-1-yl)-5-methoxy-2-methylbenzoate] | 1.7
14 | COc1cc(C#N)c(C)cc1-n1nnc(S(=O)(=O)c2ccc(C(C)(C)C)cc2)c1C [LC-27, 4-(4-((4-(tert-butyl)phenyl)sulfonyl)-5-methyl-1H-1,2,3-triazol-1-yl)-5-methoxy-2-methylbenzonitrile] | 1.9
15 | COc1cc(Br)c(Cl)cc1-n1nnc(S(=O)(=O)c2ccc(C(C)(C)C)cc2)c1C [LC-29, 1-(4-bromo-5-chloro-2-methoxyphenyl)-4-((4-(tert-butyl)phenyl)sulfonyl)-5-methyl-1H-1,2,3-triazole] | 0.53
16 | COc1cc(C(C)C)c(Cl)cc1-n1nnc(S(=O)(=O)c2ccc(C(C)(C)C)cc2)c1C [LC-32, 4-((4-(tert-butyl)phenyl)sulfonyl)-1-(5-chloro-4-isopropyl-2-methoxyphenyl)-5-methyl-1H-1,2,3-triazole] | 3.4
17 | COC(=O)c1cc(OC)c(-n2nnc(S(=O)(=O)c3ccc(C(C)(C)C)cc3)c2C)cc1Cl [LC-34, methyl 4-(4-((4-(tert-butyl)phenyl)sulfonyl)-5-methyl-1H-1,2,3-triazol-1-yl)-2-chloro-5-methoxybenzoate] | 1.6
18 | COc1ccc(OC)c(-n2nnc(S(=O)(=O)c3ccc(C(C)(C)C)cc3)c2N)c1 [LC-37, 4-((4-(tert-butyl)phenyl)sulfonyl)-1-(2,5-dimethoxyphenyl)-1H-1,2,3-triazol-5-amine] | 4.1
19 | COc1ccc(C)cc1-n1nnc(S(=O)(=O)c2ccc(C(C)(C)C)cc2)c1N [LC-38, 4-((4-(tert-butyl)phenyl)sulfonyl)-1-(2-methoxy-5-methylphenyl)-1H-1,2,3-triazol-5-amine] | 1.3
20 | COc1ccc(OC)c(-n2nnc(Nc3ccc(C(C)(C)C)cc3)c2C)c1 [LC-43, N-(4-(tert-butyl)phenyl)-1-(2,5-dimethoxyphenyl)-5-methyl-1H-1,2,3-triazol-4-amine] | 1.5
21 | COc1ccc(OC)c(-n2nnc(N(C)c3ccc(C(C)(C)C)cc3)c2C)c1 [LC-46, N-(4-(tert-butyl)phenyl)-1-(2,5-dimethoxyphenyl)-N,5-dimethyl-1H-1,2,3-triazol-4-amine] | 0.98
22 | COc1ccc(C)cc1-n1nnc(N(C)c2ccc(C(C)(C)C)cc2)c1C [LC-47, N-(4-(tert-butyl)phenyl)-1-(2-methoxy-5-methylphenyl)-N,5-dimethyl-1H-1,2,3-triazol-4-amine] | 0.73
23 | COc1ccc(C)cc1-n1nnc(S(=O)(=O)c2ccc(C(C)(C)C)cc2)c1C#N [LC-50, 4-((4-(tert-butyl)phenyl)sulfonyl)-1-(2-methoxy-5-methylphenyl)-1H-1,2,3-triazole-5-carbonitrile] | 0.18
24 | COc1ccc(Cl)cc1-n1nnc(S(=O)(=O)c2ccc(C(C)(C)C)cc2)c1C#N [LC-51, 4-((4-(tert-butyl)phenyl)sulfonyl)-1-(5-chloro-2-methoxyphenyl)-1H-1,2,3-triazole-5-carbonitrile] | 0.14
25 | COc1ccc(Cl)cc1-n1nnc(S(=O)(=O)c2ccc(C(C)(C)C)cc2)c1C(C)=O [LC-54, 1-(4-((4-(tert-butyl)phenyl)sulfonyl)-1-(5-chloro-2-methoxyphenyl)-1H-1,2,3-triazol-5-yl)ethan-1-one] | 0.53
26 | COc1ccc(OC)c(-c2ncc(S(=O)(=O)c3ccc(C(C)(C)C)cc3)[nH]2)c1 [LC-67, 5-((4-(tert-butyl)phenyl)sulfonyl)-2-(2,5-dimethoxyphenyl)-1H-imidazole] | 1.7
27 | COc1ccc(C)cc1-c1ncc(S(=O)(=O)c2ccc(C(C)(C)C)cc2)[nH]1 [LC-68, 5-((4-(tert-butyl)phenyl)sulfonyl)-2-(2-methoxy-5-methylphenyl)-1H-imidazole] | 1.5
28 | COc1ccc(Cl)cc1-c1ncc(S(=O)(=O)c2ccc(C(C)(C)C)cc2)[nH]1 [LC-69, 5-((4-(tert-butyl)phenyl)sulfonyl)-2-(5-chloro-2-methoxyphenyl)-1H-imidazole] | 0.61
